Test results reported in US9375413B2, “Methods of reducing milk somatic cell count” ([…], priority 2014, dated 2016).

Columns and labels:
[1] = tested on: Twin-bearing, multiparous Romney ewes; test: Milk composition (crude protein, somatic cell count, fat, lactose) and milk yield after L-arginine supplementation from day 100 of pregnancy to parturition (Example 1); format: in vivo, sheep
Description: (§1) Twin-bearing, multiparous Romney ewes were housed in individual stalls and fed once daily, a lucerne-based pellet diet formulated to meet 100% of the NRC-recommended maintenance requirements for twin-bearing pregnant and lactating ewes throughout the trial.
(§2) From day 100 of pregnancy to parturition, ewes received either an injected bolus of L-arginine-mono-hydrochloride (L-arginine-HCL; Merck KGaA, Darmstadt, Germany; 345 μmol/kg body weight (BW)) or a control being approximately the same volume of sterile saline injected three times daily (0800, 1600, 2400 hrs).
At the first sign of labour induction, which was between 1 and 10 hours (h) prior to birth, L-arginine treatment ceased and ewes were allowed to lamb naturally. In total 25 ewes were used (arginine group, n=13; control group n=12).
Ewes were assigned to milking groups based on parturition date. Collection of a colostrum sample within the 12 h post partum could have compromised animal behaviour and ewe-lamb bond formation. Therefore, a range of 0.58-1.22 days in lactation was produced when the “colostrum” sample was collected. Ewes were then milked approximately at day 1, 4, 7, 10 and 14 of lactation, using the oxytocin method. At each milking, ewes were milked by machine followed by hand stripping, after an intravenous injection of 1 IU of synthetic oxytocin (Oxytocin V, 10 IU/mL). The time when the udder was empty was recorded. Animals were milked again (machine and hand-stripping) approximately 4 h later, with the time and weight of the milk recorded. Lambs were separated from the ewes and bottle-fed as required during the intervening period, using the milk collected from their respective dam. The same operators milked all ewes on each occasion in this study using a mobile milking machine. Milk obtained after the 4 h intervening period was subsampled for analysis of milk composition (% fat, % crude protein (CP), % lactose and somatic cell count). Milk samples were preserved with bronopol and refrigerated at 4° C. until analysis using a FT120-FTIR, calibrated for sheep milk. Two reference checks (fat and CP) were taken during lactation to account for changes in the matrix of the milk due to stage of lactation. Somatic cell counts were determined using a bromide based fluorescent dye and a FOSS flow Cytometer and values log transformed. Ewes were weighed and body condition scored (scale of 1 to 5) once a week.
Throughout milking, dams and offspring were housed in individual pens immediately adjacent to each other. Daily milk yield was calculated. Repeated measures analysis of milk yield and composition using the MIXED procedure with a linear model that included the fixed effects of dam, dam treatment group, and the covariates average dam live weight, average dam body condition score and days in lactation were included in the model. From the 25 ewes available only 18 were used for statistical analysis (arginine group n=8; control group n=10).

[2] = tested on: Twin-bearing, multiparous Romney ewes; test: Milk free amino acid profiles by HPLC (Example 1); format: in vivo, sheep; details: saline-treated controls compared to L-arginine treated ewes
Description: as §1, §2
Milk free amino acids (FAA) were analysed using High-Performance Liquid Chromatography (HPLC). Skim milk (500 μL) was mixed with 500-4, lithium extraction buffer (14 g/L lithium chloride, 3 g/L lithium hydroxide, 1 g/L phenol, 50 g/L sulfosalic acid) and placed on ice for 15 to 20 min. Volumes of 10-μL lithium hydroxide (5.88 M) were added to the sample to obtain a final pH of 1.5 to 2. This was followed by centrifugation at 13,680×g for 5 min at 4° C., and the resulting supernatant was filtered through a 4 mm 0.2 μm syringe filter. The filtered sample was analysed for FAA using a Shimadzu LC 10Ai HPLC, fitted with a high-efficiency lithium-ion exchange column (3 mm i.d.×150 mm) Injected volumes were 10 μL, the reagent flow rate was 0.3 mL/min, and the run was 162 min between injections, using lithium buffers as elutants and ninhydrin post column derivatization. Free amino acid values are reported as μmol per liter of milk. Differences between treatment groups were analysed using the MIXED procedure (SAS) with a linear model that included the fixed effects of dam, dam treatment group, and the covariates average dam live weight, average dam body condition score and days in lactation were included in the model.

[3] = Effect of i.v. bolus on plasma arginine concentration; format: in vivo, sheep
Protocol: FIG. 4 is a graph from the above study illustrating plasma arginine concentrations immediately prior to (−5 min) and 30, 60 and 180 minutes following an i.v. bolus of arginine or saline (controls) in twin-bearing ewes (n=9/group) at 120 days gestation.
FIG. 5 is a graph from the above study illustrating plasma arginine concentrations 1 hour following a bolus of arginine or saline (controls) and immediately prior to slaughter at day 140 gestation in twin-bearing ewes (n=6/group).
To determine the magnitude of the increase in circulating Arg concentrations following a single bolus (3 boluses were given each day), plasma samples collected from all ewes at day 120 of gestation at time −5 (immediately prior to bolus), 30, 60 and 180 minutes following the bolus (Arg or saline) were analysed for Arg concentration using reverse-phase high-performance liquid chromatography (Sales et al., 2012). Nine ewes per treatment group were randomly selected for analysis.

[4] = tested on: twin-bearing ewes; test: Somatic cell count (SCC) in milk after arginine supplementation in mid-late gestation (Example 2); format: in vivo, sheep; details: for somatic cell count (SCC) lower than controls: trend P<0.15
Description: FIG. 3 is a graph from a further study confirming the effect of arginine supplementation from 100 days gestation to birth in twin-bearing ewes on somatic cell count (SCC) in milk. Data was log transformed for analysis—back transformed values are presented.
In a second experiment ewes were supplemented with arginine during mid-late gestation that stopped at parturition.

[5] = tested on: sheep; details: not in gestation, one off dose; cited from earlier work
[6] = tested on: non-gestational (and pre-ruminant) calves; details: cited from earlier work

SMILES: Cl.N=C(N)NCCC[C@H](N)C(=O)O [L-arginine, L-arginine-mono-hydrochloride]
- MSC count compared to control animals ([1]; between day 1 and day 4 post parturition and administration stopping): significantly lower
- Milk somatic cell counts ([1]; day 4-14 of lactation, compared to saline-treated controls): decreased
- MSC counts ([1]; ewes treated with L-arginine, untreated ewes higher than 500,000): below 300,000
- fat percentage ([1]; milk, day 1 of lactation, saline-treated controls compared to L-arginine treated ewes): trend for increased fat percentage at day 1 in saline-treated controls
- Crude protein percentage ([1]; milk, day 4-7 of lactation, compared to saline-treated controls, 345 μmol/kg BW three times daily): increased
- crude milk protein percentage ([1]; milk, day 14 of lactation, saline-treated controls compared to L-arginine-treated ewes): trend for increased crude milk protein percentage was observed in saline-treated controls
- lactose percentage ([1]; milk, post parturition, versus saline-treated controls): No effect
- duration of protective response in terms of milk somatic cell count ([1]; post administration (administration day 100 to parturition)): at least 14 days
- milk yield ([1]; post parturition, versus saline-treated controls): No effect
- absolute milk free concentration of histidine ([2]; day 7 post parturition): significantly decreased in saline-treated controls
- absolute milk free concentration of phenyalanine ([2]; day 7 post parturition): significantly decreased in saline-treated controls
- absolute milk free concentration of tryptophan ([2]; day 7 post parturition): significantly decreased in saline-treated controls
- absolute milk free concentration of tyrosine ([2]; day 7 post parturition): significantly decreased in saline-treated controls
- milk free asparagine ([2]; day 14 post parturition): significantly decreased
- milk free glutamate ([2]; day 14 post parturition): trends for decreased
- milk free leucine ([2]; day 14 post parturition): trends for decreased
- milk free tyrosine ([2]; day 14 post parturition): trends for decreased
- increase in circulating Arg concentrations ([3]; 30 minutes following single i.v. bolus, day 120 of gestation): 4 fold
- plasma Arg relative to controls ([3]; 1 hour following a bolus, immediately prior to slaughter at 140 days of gestation, P<0.0001): 4.6 times higher than controls
- time for circulating concentrations of Arg to return to baseline ([3]; after i.v. bolus, day 120 of gestation): ≤ 3 h
- elevated circulating Arg concentrations relative to control ([3]; until at least 60 minutes post-dosage, single i.v. bolus, day 120 of gestation): 3 times the control
- variation in SCC between animals ([4]; control compared to arginine-supplemented ewes, at each time-point and over time): greater in the control
- somatic cell count (SCC) lower than controls ([4]; day 1 (colostrum) of lactation): 77%
- somatic cell count (SCC) lower relative to controls ([4]; day 7 of lactation): ~75%
- somatic cell count (SCC) lower than controls ([4]; day 10 of lactation): 53%
- somatic cell count (SCC) lower relative to controls ([4]; day 14 of lactation): ~75%
- SCC in milk ([4]; throughout the period of study, control ewes 787,000-2,594,000 cells/ml): 366,000-589,000 cells/ml
- plasma white blood cell levels [5]: increase in white blood cell levels
- antibody production in plasma [6]: reduction in antibody production
